In patent US7138361B2, “Herbicidal heterocycles” (E. I. du Pont de Nemours and Company, priority 2000, dated 2006):

Key:
Assay type in all cases: in vivo
[1] = test system: cocklebur (Xanthium strumarium); experiment: Test B postemergence; details: 13 to 15 days
In short: (§1)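 Post-treatment, species sat 13–15 days under greenhouse conditions before visual scoring against controls, 0 (no effect) through 100 (complete control). Application preemergence to sown seeds or postemergence at 1- to 4-leaf stage, using a non-phytotoxic solvent/surfactant formulation.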

[2] = test system: crabgrass (Digitaria sanguinalis); experiment: Test B postemergence; details: 13 to 15 days
In short: as §1

[3] = test system: lambsquarters (Chenopodium album); experiment: Test B postemergence; details: 13 to 15 days
In short: as §1

[4] = test system: wild oat (Avena fatua); experiment: Test B postemergence; details: 13 to 15 days
In short: as §1

[5] = test system: Nightshade; experiment: Test C preemergence
[6] = test system: Sunflower; experiment: Test C preemergence; details: Rate 125 g/ha; scale 0 to 100, 0 no effect, 100 complete control
[7] = test system: Surinam grass (Brachiaria decumbens); experiment: Test C preemergence; details: for Plant response rating (0 to 100), Surinam grass: visual evaluation after 12 to 14 days
In short: (§2)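 Visual injury scores of 0–100, with 100 meaning complete control, were given relative to controls after 12–14 days in the greenhouse. Treatments used a surfactant-containing non-phytotoxic solvent formulation, sprayed on seeded pots preemergence or on 1–4-leaf plants of 2–18 cm postemergence.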

[8] = test system: bermudagrass (Cynodon dactylon); experiment: Test C preemergence; details: for Plant response rating (0 to 100 where 0 is no effect and 100 is complete control), Bermudagrass: visual evaluation after 12 to 14 days
In short: as §2

[9] = test system: cocklebur (Xanthium strumarium); experiment: Test C preemergence; details: for Plant response rating (0 to 100), Cocklebur: visual evaluation after 12 to 14 days
In short: as §2

[10] = test system: common ragweed (Ambrosia elatior); experiment: Test C preemergence; details: for Plant response rating (0 to 100), Ragweed, Common: Rate 500 g/ha, visual evaluation after 12 to 14 days
In short: as §2

[11] = test system: corn (Zea mays); experiment: Test C preemergence; details: for Plant response rating (0 to 100), Corn: visual evaluation after 12 to 14 days
In short: as §2

[12] = test system: giant foxtail (Setaria faberii); experiment: Test C preemergence; details: for Plant response rating (0 to 100), Foxtail, Giant: visual evaluation after 12 to 14 days
In short: as §2

[13] = test system: johnsongrass (Sorghum halepense); experiment: Test C preemergence; details: for Plant response rating (0 to 100), Johnsongrass: visual evaluation after 12 to 14 days
In short: as §2

[14] = test system: kochia (Kochia scoparia); experiment: Test C preemergence; details: for Plant response rating (0 to 100), Kochia: visual evaluation after 12 to 14 days
In short: as §2

[15] = test system: lambsquarters (Chenopodium album); experiment: Test C preemergence; details: for Plant response rating (0 to 100), Lambsquarters: Rate 500 g/ha, visual evaluation after 12 to 14 days
In short: as §2

[16] = test system: pigweed (Amaranthus retroflexus); experiment: Test C preemergence; details: for Plant response rating (0 to 100), Pigweed: Rate 500 g/ha, visual evaluation after 12 to 14 days
In short: as §2

[17] = test system: soybean (Glycine max); experiment: Test C preemergence; details: for Plant response rating (0 to 100), Soybean: Rate 500 g/ha, visual evaluation after 12 to 14 days
In short: as §2

[18] = test system: velvetleaf (Abutilon theophrasti); experiment: Test C preemergence; details: for Plant response rating (0 to 100), Velvetleaf: Rate 500 g/ha, visual evaluation after 12 to 14 days
In short: as §2

[19] = test system: woolly cupgrass (Eriochloa villosa); experiment: Test C preemergence; details: for Plant response rating (0 to 100), Cupgrass, Woolly: visual evaluation after 12 to 14 days
In short: as §2

[20] = test system: Sunflower; experiment: Test C preemergence; details: Rate 500 g/ha, visual evaluation after 12 to 14 days
[21] = Rate 125 g/ha, scale 0 (no effect) to 100 (complete control)
[22] = Rate 500 g/ha, scale 0 to 100, 0 is no effect, 100 is complete control
[23] = Rate 62 g/ha, scale 0 to 100, 0 no effect, 100 complete control
[24] = Rate 125 g/ha, scale 0 to 100, 0 no effect, 100 complete control
[25] = Rate 250 g/ha, scale 0 to 100, 0 no effect, 100 complete control
[26] = preemergence, Rate 250 g/ha, scale 0 to 100, 0 no effect, 100 complete control
[27] = preemergence, Rate 62 g/ha, scale 0 to 100

CC(C)(C)c1ccn(C2CCN(c3cccc(OC(F)F)c3)C2=O)n1 (stereo not shown) [Compound 76]
Plant response rating, Cocklebur [1, 21]: 0
Plant response rating, Cocklebur [1, 22]: 20
Plant response rating, Crabgrass [2, 21]: 0
Plant response rating, Crabgrass [2, 22]: 40
Plant response rating, Lambsquarters [3, 21]: 0
Plant response rating, Lambsquarters [3, 22]: 40
Plant response rating, Wild Oat [4, 21]: 0
Plant response rating, Wild Oat [4, 22]: 0
Plant response rating, Nightshade [5, 23]: 0
Plant response rating, Nightshade [5, 24]: 30
Plant response rating, Nightshade [5, 25]: 40
Plant response rating, Sunflower [6]: 20
Plant response rating, Surinam grass [7, 23]: 50
Plant response rating, Surinam grass [7, 24]: 60
Plant response rating (0 to 100), Surinam grass ([7]; preemergence, Rate 250 g/ha): 80
Plant response rating (0 to 100), Surinam grass ([7]; preemergence, Rate 500 g/ha): 100
Plant response rating, Bermudagrass [8, 23]: 100
Plant response rating, Bermudagrass [8, 24]: 100
Plant response rating (0 to 100 where 0 is no effect and 100 is complete control), Bermudagrass ([8]; preemergence, Rate 250 g/ha): 100
Plant response rating (0 to 100 where 0 is no effect and 100 is complete control), Bermudagrass ([8]; preemergence, Rate 500 g/ha): 100
Plant response rating, Cocklebur [9, 23]: 0
Plant response rating, Cocklebur [9, 24]: 0
Plant response rating (0 to 100), Cocklebur ([9]; preemergence, Rate 250 g/ha): 20
Plant response rating (0 to 100), Cocklebur ([9]; preemergence, Rate 500 g/ha): 20
Plant response rating, Ragweed, Common [10, 24]: 0
Plant response rating (0 to 100), Ragweed, Common ([10]; preemergence): 0
Plant response rating, Ragweed, Common [10, 26]: 0
Plant response rating, Corn [11, 23]: 20
Plant response rating, Corn [11, 24]: 20
Plant response rating (0 to 100), Corn ([11]; preemergence, Rate 250 g/ha): 20
Plant response rating (0 to 100), Corn ([11]; preemergence, Rate 500 g/ha): 80
Plant response rating, Foxtail, Giant [12, 23]: 100
Plant response rating, Foxtail, Giant [12, 24]: 100
Plant response rating (0 to 100), Foxtail, Giant ([12]; preemergence, Rate 250 g/ha): 20
Plant response rating (0 to 100), Foxtail, Giant ([12]; preemergence, Rate 500 g/ha): 90
Plant response rating, Johnsongrass [13, 23]: 20
Plant response rating, Johnsongrass [13, 24]: 30
Plant response rating (0 to 100), Johnsongrass ([13]; preemergence, Rate 250 g/ha): 40
Plant response rating (0 to 100), Johnsongrass ([13]; preemergence, Rate 500 g/ha): 100
Plant response rating, Kochia [14, 23]: 100
Plant response rating, Kochia [14, 24]: 100
Plant response rating (0 to 100), Kochia ([14]; preemergence, Rate 250 g/ha): 100
Plant response rating (0 to 100), Kochia ([14]; preemergence, Rate 500 g/ha): 100
Plant response rating, Lambsquarters [15, 23]: 100
Plant response rating, Lambsquarters [15, 24]: 100
Plant response rating (0 to 100), Lambsquarters ([15]; preemergence): 100
Plant response rating, Lambsquarters [15, 26]: 100
Plant response rating, Pigweed [16, 24]: 100
Plant response rating (0 to 100), Pigweed ([16]; preemergence): 100
Plant response rating, Pigweed [16, 26]: 0
Plant response rating, Soybean [17, 24]: 0
Plant response rating (0 to 100), Soybean ([17]; preemergence): 0
Plant response rating, Soybean [17, 26]: 0
Plant response rating, Velvetleaf [18, 24]: 20
Plant response rating (0 to 100), Velvetleaf ([18]; preemergence): 50
Plant response rating, Velvetleaf [18, 26]: 20
Plant response rating, Cupgrass, Woolly [19, 23]: 50
Plant response rating, Cupgrass, Woolly [19, 24]: 100
Plant response rating (0 to 100), Cupgrass, Woolly ([19]; preemergence, Rate 250 g/ha): 100
Plant response rating (0 to 100), Cupgrass, Woolly ([19]; preemergence, Rate 500 g/ha): 100
Plant response rating (0 to 100), Sunflower [20]: 30

CCCC(C)c1ccn(C2SCN(c3cccc(C(F)(F)F)c3)C2=O)n1 (stereo not shown) [Compound 92]
Plant response rating, Cocklebur [1, 21]: 20
Plant response rating, Cocklebur [1, 22]: 80
Plant response rating, Crabgrass [2, 21]: 10
Plant response rating, Crabgrass [2, 22]: 50
Plant response rating, Lambsquarters [3, 22]: 90
Plant response rating, Wild Oat [4, 22]: 0
Plant response rating, Nightshade ([5]; Rate 62 g/ha, scale 0 to 100): 0
Plant response rating, Nightshade [5, 24]: 0
Plant response rating, Nightshade [5, 25]: 20
Plant response rating, Sunflower [6]: 0
Plant response rating, Surinam grass [7, 24]: 0
Plant response rating, Surinam grass [7, 27]: 0
Plant response rating (0 to 100), Surinam grass ([7]; preemergence, Rate 500 g/ha): 35
Plant response rating, Surinam grass [7, 26]: 20
Plant response rating, Bermudagrass [8, 24]: 20
Plant response rating, Bermudagrass [8, 27]: 20
Plant response rating (0 to 100 where 0 is no effect and 100 is complete control), Bermudagrass ([8]; preemergence, Rate 500 g/ha): 90
Plant response rating, Bermudagrass [8, 26]: 85
Plant response rating, Cocklebur [9, 24]: 0
Plant response rating, Cocklebur [9, 27]: 0
Plant response rating (0 to 100), Cocklebur ([9]; preemergence, Rate 500 g/ha): 20
Plant response rating, Cocklebur [9, 26]: 20
Plant response rating, Ragweed, Common [10, 24]: 0
Plant response rating, Ragweed, Common [10, 27]: 0
Plant response rating (0 to 100), Ragweed, Common ([10]; preemergence): 40
Plant response rating, Ragweed, Common [10, 26]: 0
Plant response rating, Corn [11, 24]: 10
Plant response rating, Corn [11, 27]: 0
Plant response rating (0 to 100), Corn ([11]; preemergence, Rate 500 g/ha): 40
Plant response rating, Corn [11, 26]: 30
Plant response rating, Foxtail, Giant [12, 24]: 0
Plant response rating, Foxtail, Giant [12, 27]: 20
Plant response rating (0 to 100), Foxtail, Giant ([12]; preemergence, Rate 500 g/ha): 100
Plant response rating, Foxtail, Giant [12, 26]: 100
Plant response rating, Johnsongrass [13, 24]: 65
Plant response rating, Johnsongrass [13, 27]: 50
Plant response rating (0 to 100), Johnsongrass ([13]; preemergence, Rate 500 g/ha): 100
Plant response rating, Johnsongrass [13, 26]: 70
Plant response rating, Kochia [14, 24]: 40
Plant response rating, Kochia [14, 27]: 0
Plant response rating (0 to 100), Kochia ([14]; preemergence, Rate 500 g/ha): 100
Plant response rating, Kochia [14, 26]: 70
Plant response rating, Lambsquarters [15, 24]: 100
Plant response rating, Lambsquarters [15, 27]: 80
Plant response rating (0 to 100), Lambsquarters ([15]; preemergence): 100
Plant response rating, Lambsquarters [15, 26]: 100
Plant response rating, Pigweed [16, 24]: 0
Plant response rating, Pigweed [16, 27]: 0
Plant response rating (0 to 100), Pigweed ([16]; preemergence): 50
Plant response rating, Pigweed [16, 26]: 100
Plant response rating, Soybean [17, 24]: 0
Plant response rating, Soybean [17, 27]: 0
Plant response rating (0 to 100), Soybean ([17]; preemergence): 100
Plant response rating, Soybean [17, 26]: 30
Plant response rating, Velvetleaf [18, 24]: 0
Plant response rating, Velvetleaf [18, 27]: 0
Plant response rating (0 to 100), Velvetleaf ([18]; preemergence): 0
Plant response rating, Velvetleaf [18, 26]: 0
Plant response rating, Cupgrass, Woolly [19, 24]: 10
Plant response rating, Cupgrass, Woolly [19, 27]: 0
Plant response rating (0 to 100), Cupgrass, Woolly ([19]; preemergence, Rate 500 g/ha): 50
Plant response rating, Cupgrass, Woolly [19, 26]: 50
Plant response rating (0 to 100), Sunflower [20]: 55
